In patent US6737383B1, “Herbicidal oxadiazolidines” (priority 1999, dated 2004):

Columns and labels:
[1] = test system: crabgrass; assay: Test B pre/postemergence crabgrass; assay type: in vivo, Digitaria sanguinalis
Method in brief: (§1)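 Test chemicals in a non-phytotoxic solvent mixture with surfactant were sprayed preemergence onto planted seeds and postemergence onto plants 2 to 18 cm tall (1- to 4-leaf stage). After twelve to sixteen days in a greenhouse, injury was visually rated against untreated controls from 0 (no effect) to 10 (complete control).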

[2] = test system: wheat; assay: Test B pre/postemergence wheat; assay type: in vivo, Triticum aestivum
Method in brief: as §1

[3] = test system: duck salad; assay: Test B flood test duck salad; assay type: in vivo, Heteranthera limosa; details: for Plant response rating, Ducksalad (0 to 10 scale, 0 is no effect, 10 is complete control): Rate 62 g/ha; for Plant response rating, Ducksalad (0 to 10 scale, 0 is no effect, 10 is complete control) / Ducksalad plant response rating (0 to 10 scale, 0 is no effect, 10 is complete control): visual evaluation after twelve to sixteen days; for Ducksalad plant response rating (0 to 10 scale, 0 is no effect, 10 is complete control): Rate 125 g/ha, under heading Pre-emergence
Method in brief: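 Flood test on plants grown to the 2-leaf stage; treated plants kept in greenhouse twelve to sixteen days, then visually rated against controls on a 0 (no effect) to 10 (complete control) scale.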

[4] = test system: giant foxtail; assay: Test B pre/postemergence giant foxtail; assay type: in vivo, Setaria faberii
Method in brief: as §1

[5] = Postemergence, Rate 250 g/ha, scale 0 to 10
[6] = Postemergence, Rate 500 g/ha, scale of 0 to 10 where 0 is no effect and 10 is complete control
[7] = Preemergence, Rate 62 g/ha, scale of 0 to 10 where 0 is no effect and 10 is complete control
[8] = Preemergence, Rate 125 g/ha, scale of 0 to 10 where 0 is no effect and 10 is complete control
[9] = Preemergence, Rate 250 g/ha, scale 0 to 10, 0 is no effect, 10 is complete control
[10] = Preemergence, Rate 500 g/ha, scale 0 to 10, 0 is no effect, 10 is complete control
[11] = Rate 62 g/ha, Postemergence, scale 0 to 10 (0 no effect, 10 complete control)
[12] = Rate 125 g/ha, Postemergence, scale 0 to 10, 0 is no effect, 10 is complete control
[13] = flood test species, Pre-emergence
[14] = Rate 250 g/ha, Pre-emergence (flood test species), scale 0 to 10, 0 is no effect, 10 is complete control
[15] = Rate 500 g/ha, Pre-emergence, flood test species, scale 0 to 10 (0 no effect, 10 complete control)
[16] = Postemergence, Rate 62 g/ha, scale of 0 to 10, 0 is no effect, 10 is complete control
[17] = Postemergence, Rate 125 g/ha, scale 0 to 10, 0 is no effect, 10 is complete control
[18] = Postemergence, Rate 500 g/ha, scale 0 to 10, 0 is no effect, 10 is complete control
[19] = Preemergence, Rate 125 g/ha, scale 0 to 10, 0 is no effect, 10 is complete control
[20] = Preemergence, Rate 500 g/ha, scale of 0 to 10 where 0 is no effect and 10 is complete control
[21] = Rate 250 g/ha, Postemergence, scale of 0 to 10 where 0 is no effect and 10 is complete control
[22] = Rate 500 g/ha, Pre-emergence section of Table B, 0 to 10 scale (0 no effect, 10 complete control)
[23] = Postemergence, Rate 62 g/ha, scale 0 to 10, 0 is no effect, 10 is complete control
[24] = Postemergence, Rate 125 g/ha, scale of 0 to 10 where 0 is no effect and 10 is complete control
[25] = Postemergence, Rate 250 g/ha, scale of 0 to 10, 0 is no effect, 10 is complete control
[26] = Preemergence, Rate 62 g/ha, scale 0 to 10 (0 no effect, 10 complete control)
[27] = Preemergence, Rate 250 g/ha, scale 0 to 10 (0 no effect, 10 complete control)

CC(C)N(C(=O)n1oc(=O)n(CCCl)c1=O)c1ccc(Cl)cc1 [Compound 474] was tested, and the “Crabgrass plant response rating” value [1, 5] was 6, the “Crabgrass plant response rating” value [1, 6] was 9 and the “Plant response rating, Crabgrass” value [1, 7] was 6. For the same compound, the “Plant response rating, Crabgrass” value [1, 8] was 9, the “Crabgrass plant response rating” value [1, 9] was 9 and the “Crabgrass plant response rating” value [1, 10] was 10. The “Crabgrass plant response rating” value [1, 11] was 2, the “Crabgrass plant response rating” value [1, 12] was 5 and the “Wheat plant response rating” value [2, 5] was 0. For the same compound, the “Plant response rating, Wheat” value [2, 7] was 0, the “Plant response rating, Wheat” value [2, 8] was 0 and the “Wheat plant response rating” value [2, 9] was 0. For the same compound, the “Wheat plant response rating” value [2, 10] was 0, the “Wheat plant response rating” value [2, 11] was 0 and the “Wheat plant response rating” value [2, 12] was 0. For the same compound, the “Plant response rating, Ducksalad (0 to 10 scale, 0 is no effect, 10 is complete control)” value [3, 13] was 0, the “Ducksalad plant response rating (0 to 10 scale, 0 is no effect, 10 is complete control)” value ([3]; flood test species) was 0 and the “Ducksalad plant response rating” value [3, 14] was 0. The “Ducksalad plant response rating” value [3, 15] was 0, the “Giant foxtail plant response rating” value [4, 5] was 7 and the “Giant foxtail plant response rating” value [4, 6] was 8. The “Plant response rating, Giant foxtail” value [4, 7] was 7, the “Plant response rating, Giant foxtail” value [4, 8] was 10 and the “Giant foxtail plant response rating” value [4, 9] was 10. The “Giant foxtail plant response rating” value [4, 10] was 10, the “Giant foxtail plant response rating” value [4, 11] was 3 and the “Giant foxtail plant response rating” value [4, 12] was 6.

For CC(C)N(C(=O)n1oc(=O)n(C(C)C(=O)N(C)C)c1=O)c1ccc(Cl)cc1 (stereo not drawn) [Compound 480], the “Crabgrass plant response rating” value [1, 5] was 7, the “Crabgrass plant response rating” value [1, 6] was 8 and the “Plant response rating, Crabgrass” value [1, 7] was 7. For the same compound, the “Plant response rating, Crabgrass” value [1, 8] was 8, the “Crabgrass plant response rating” value [1, 9] was 8 and the “Crabgrass plant response rating” value [1, 10] was 10. The “Crabgrass plant response rating” value [1, 11] was 2, the “Crabgrass plant response rating” value [1, 12] was 6 and the “Wheat plant response rating” value [2, 5] was 0. For the same compound, the “Plant response rating, Wheat” value [2, 7] was 0, the “Plant response rating, Wheat” value [2, 8] was 0 and the “Wheat plant response rating” value [2, 9] was 0. The “Wheat plant response rating” value [2, 10] was 2, the “Wheat plant response rating” value [2, 11] was 0 and the “Wheat plant response rating” value [2, 12] was 0. For the same compound, the “Plant response rating, Ducksalad (0 to 10 scale, 0 is no effect, 10 is complete control)” value [3, 13] was 0, the “Ducksalad plant response rating (0 to 10 scale, 0 is no effect, 10 is complete control)” value ([3]; flood test species) was 0 and the “Ducksalad plant response rating” value [3, 14] was 0. The “Ducksalad plant response rating” value [3, 15] was 0, the “Giant foxtail plant response rating” value [4, 5] was 8 and the “Giant foxtail plant response rating” value [4, 6] was 8. The “Plant response rating, Giant foxtail” value [4, 7] was 10, the “Plant response rating, Giant foxtail” value [4, 8] was 10 and the “Giant foxtail plant response rating” value [4, 9] was 10. For the same compound, the “Giant foxtail plant response rating” value [4, 10] was 10, the “Giant foxtail plant response rating” value [4, 11] was 3 and the “Giant foxtail plant response rating” value [4, 12] was 5.

In the case of CC(C)N(C(=O)n1oc(=O)n(CCC2OCCO2)c1=O)c1ccc(Cl)cc1 [Compound 531], the “Crabgrass plant response rating” value [1, 16] is reported as 2, the “Crabgrass plant response rating” value [1, 17] is reported as 8 and the “Plant response rating, Crabgrass” value [1, 18] is reported as 10. The “Plant response rating, Crabgrass” value [1, 7] was 8, the “Crabgrass plant response rating” value [1, 19] was 10 and the “Crabgrass plant response rating (0 to 10 scale)” value ([1]; Preemergence, Rate 250 g/ha) was 10. For the same compound, the “Crabgrass plant response rating” value [1, 20] was 10, the “Plant response rating, Crabgrass” value [1, 21] was 9 and the “Wheat plant response rating” value [2, 16] was 0. For the same compound, the “Wheat plant response rating” value [2, 17] was 0, the “Plant response rating, Wheat” value [2, 18] was 0 and the “Plant response rating, Wheat” value [2, 7] was 0. For the same compound, the “Wheat plant response rating” value [2, 19] was 0, the “Wheat plant response rating (0 to 10 scale)” value ([2]; Preemergence, Rate 250 g/ha) was 0 and the “Plant response rating, Wheat” value [2, 21] was 0. The “Plant response rating, Ducksalad (0 to 10 scale, 0 is no effect, 10 is complete control)” value [3, 13] was 0, the “Ducksalad plant response rating (0 to 10 scale, 0 is no effect, 10 is complete control)” value ([3]; flood test species) was 0 and the “Ducksalad plant response rating” value [3, 14] was 0. The “Ducksalad plant response rating” value [3, 22] was 0, the “Giant foxtail plant response rating” value [4, 16] was 0 and the “Giant foxtail plant response rating” value [4, 17] was 8. The “Plant response rating, Giant foxtail” value [4, 18] was 9, the “Plant response rating, Giant foxtail” value [4, 7] was 9 and the “Giant foxtail plant response rating” value [4, 19] was 10. For the same compound, the “Giant foxtail plant response rating (0 to 10 scale)” value ([4]; Preemergence, Rate 250 g/ha) was 10, the “Giant foxtail plant response rating” value [4, 20] was 10 and the “Plant response rating, Giant foxtail” value [4, 21] was 9.

For CC(C)N(C(=O)n1oc(=O)n(CC2CCCCO2)c1=O)c1ccc(F)cc1 (stereo not drawn) [Compound 624], the “Plant response rating, Crabgrass” value [1, 23] was 6, the “Plant response rating, Crabgrass” value [1, 24] was 7 and the “Crabgrass plant response rating” value [1, 25] was 7. The “Crabgrass plant response rating” value [1, 26] was 7, the “Plant response rating, Crabgrass” value [1, 27] was 9 and the “Plant response rating, Crabgrass” value [1, 20] was 9. For the same compound, the “Plant response rating, Wheat” value [2, 23] was 0, the “Plant response rating, Wheat” value [2, 24] was 0 and the “Wheat plant response rating” value [2, 25] was 0. The “Wheat plant response rating” value [2, 26] was 0, the “Wheat plant response rating” value [2, 8] was 0 and the “Plant response rating, Wheat” value [2, 27] was 6. The “Plant response rating, Wheat” value [2, 20] was 7, the “Plant response rating, Ducksalad (0 to 10 scale, 0 is no effect, 10 is complete control)” value [3, 13] was 0 and the “Ducksalad plant response rating (0 to 10 scale, 0 is no effect, 10 is complete control)” value ([3]; flood test species) was 0. The “Ducksalad plant response rating” value [3, 14] was 0, the “Ducksalad plant response rating” value [3, 22] was 0 and the “Plant response rating, Giant foxtail” value [4, 23] was 4. For the same compound, the “Plant response rating, Giant foxtail” value [4, 24] was 8, the “Giant foxtail plant response rating” value [4, 25] was 8 and the “Plant response rating, Giant foxtail” value [4, 6] was 9. The “Giant foxtail plant response rating” value [4, 26] was 10, the “Giant foxtail plant response rating” value [4, 8] was 10 and the “Plant response rating, Giant foxtail” value [4, 27] was 10. For the same compound, the “Plant response rating, Giant foxtail” value [4, 20] was 10.

In the case of CCOC(Cn1c(=O)on(C(=O)N(c2ccccc2)C(C)C)c1=O)OCC [Compound 632], the “Plant response rating, Crabgrass” value [1, 23] is reported as 0, the “Plant response rating, Crabgrass” value [1, 24] is reported as 6 and the “Crabgrass plant response rating” value [1, 25] is reported as 8. The “Crabgrass plant response rating” value [1, 26] was 2, the “Crabgrass plant response rating” value [1, 8] was 7 and the “Plant response rating, Crabgrass” value [1, 27] was 8. For the same compound, the “Plant response rating, Crabgrass” value [1, 20] was 9, the “Plant response rating, Wheat” value [2, 23] was 0 and the “Plant response rating, Wheat” value [2, 24] was 0. For the same compound, the “Wheat plant response rating” value [2, 25] was 0, the “Wheat plant response rating” value [2, 26] was 0 and the “Wheat plant response rating” value [2, 8] was 0. For the same compound, the “Plant response rating, Wheat” value [2, 27] was 0, the “Plant response rating, Wheat” value [2, 20] was 0 and the “Plant response rating, Ducksalad (0 to 10 scale, 0 is no effect, 10 is complete control)” value [3, 13] was 0. The “Ducksalad plant response rating (0 to 10 scale, 0 is no effect, 10 is complete control)” value ([3]; flood test species) was 0, the “Ducksalad plant response rating” value [3, 14] was 0 and the “Ducksalad plant response rating” value [3, 22] was 0. For the same compound, the “Plant response rating, Giant foxtail” value [4, 23] was 3, the “Plant response rating, Giant foxtail” value [4, 24] was 7 and the “Giant foxtail plant response rating” value [4, 25] was 8. For the same compound, the “Plant response rating, Giant foxtail” value [4, 6] was 9, the “Giant foxtail plant response rating” value [4, 26] was 8 and the “Giant foxtail plant response rating” value [4, 8] was 10. The “Plant response rating, Giant foxtail” value [4, 27] was 10 and the “Plant response rating, Giant foxtail” value [4, 20] was 10.
